Biological target: T1, human B2 receptor (Homo sapiens, UniProt P30411)
T1 sequence (P30411 1-391): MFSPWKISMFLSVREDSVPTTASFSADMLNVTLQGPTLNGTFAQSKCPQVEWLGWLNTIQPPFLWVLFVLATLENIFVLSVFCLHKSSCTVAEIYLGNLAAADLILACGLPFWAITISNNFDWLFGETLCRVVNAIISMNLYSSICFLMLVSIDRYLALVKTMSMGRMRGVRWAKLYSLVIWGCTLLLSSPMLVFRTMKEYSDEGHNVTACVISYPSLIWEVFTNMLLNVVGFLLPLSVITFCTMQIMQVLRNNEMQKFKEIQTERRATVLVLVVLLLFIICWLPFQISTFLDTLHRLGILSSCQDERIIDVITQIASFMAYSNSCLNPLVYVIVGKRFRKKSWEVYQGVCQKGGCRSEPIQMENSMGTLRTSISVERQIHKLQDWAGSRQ
Assay: Antagonist potency in cells expressing human B2 receptor
Format: cell-based
From the text: The bradykinin B2 receptor is well known for its species selective pharmacology (Paquet et al., Br. J. Pharmacol. (126), 1083-1090, 1999 (DOI: 10.1038/sj.bjp.0702403); Burgess et al., Br. J. Pharmacol. (129), 77-86, 2000 (DOI: 10.1038/sj.bjp.0703012)). […] Pharmacol. 11:916; DOI: 10.3389/fphar.2020.00916.

[2H][C@@](C)(NC(=O)COC(F)F)c1cc(F)cc(Cl)c1COc1cccc2c(-c3ncnn3C)cc(C)nc12 [compound of formula (I)]
times more potent at human B2 receptor than icatibant: about 20 times
intrinsic agonist activity (B2 receptor): devoid of intrinsic agonist activity
Kb (human B2 receptor, read-out: Kb value to antagonize BK activation): 150 pM
antagonist potency at recombinant human B2 receptors (recombinant): 150 pM
